From patent US4952565A (priority 1986, dated 1990)
Read-outs that look alike come from different tables or passages of the source.

Columns and labels:
[1] = Dissolution rates, Paddle Method, Apparatus 2 USP XXI, artificial gastric and intestinal juice; type: physicochemical; conditions: 37 °C, 100 rpm, equ. 400 mg
Experimental: The dissolution tests were performed in 0.027N HCl and 0.06N HCl (artificial gastric juice) and in artificial intestinal juice, pH 6.0, at the temperature of 37° C. The volume of the artificial biological fluids was 1000 ml. The stirring rate of the paddle mixer was 100 rpm.

[2] = In vitro diffusion/resorption test, Stricker method, Sartorius model; type: in vitro ADME; conditions: for Papp: not told, read-out: In vitro diffusion rate constant (kd) (converted)
Experimental: The resorption tests were performed according to the Stricker method on a Sartorius Dissolution Model (Sartorius Dissolution Model, Instruction Manual, Sartorius Membranfilter, Gottingen 1972). The diffusion rates of ibuproxam through artificial lipid membranes at different pH values were determined. On the basis of the found diffusion rate constants (kd) the in vitro resorption rate constants (ka) were calculated.

[3] = Dissolution profiles/rates on Sartorius Dissolution Model SM 16751; type: physicochemical
Experimental: The quantities of the dissolved (MG) and of the resorbed (Mi) active ingredient were determined using a Sartorius Dissolution Model SM 16751 (Sartorius Dissolution Model, Instruction Manual, Sartorius Membranfilter, Gottingen 1972).

[4] = In vitro ibuproxam release from pharmaceutical forms, Paddle Method USP XXI; type: physicochemical; conditions: 0.027 HCl, 37 °C, 100 rpm; ibuproxam and Ibudros 400 mg, complex equiv. to 200 mg; mean of 3

## CC(C)Cc1ccc(C(C)C(=O)NO)cc1 (stereo not shown) [ibuproxam, 2-(4-isobutylphenyl)-propiohydroxamic acid]
[1]; 0.027 N HCl pH 1.6, 5 min
  % of dissolved ibuproxam: 21.4%
[1]; 0.027 N HCl pH 1.6, 15 min
  % of dissolved ibuproxam: 28.1%
[1]; 0.027 N HCl pH 1.6, 30 min
  % of dissolved ibuproxam: 33.3%
[1]; 0.027 N HCl pH 1.6, 45 min
  % of dissolved ibuproxam: 37.4%
[1]; 0.027 N HCl pH 1.6, 60 min
  % of dissolved ibuproxam: 43.1%
[1]; 0.06 N HCl pH 1.2, 5 min
  % of dissolved ibuproxam: 21.8%
[1]; 0.06 N HCl pH 1.2, 15 min
  % of dissolved ibuproxam: 29.8%
[1]; 0.06 N HCl pH 1.2, 30 min
  % of dissolved ibuproxam: 37.4%
[1]; 0.06 N HCl pH 1.2, 45 min
  % of dissolved ibuproxam: 40.4%
[1]; 0.06 N HCl pH 1.2, 60 min
  % of dissolved ibuproxam: 41.7%
[1]; artificial intestinal juice pH 6.0, 5 min
  % of dissolved ibuproxam: 10.2%
[1]; artificial intestinal juice pH 6.0, 15 min
  % of dissolved ibuproxam: 21.2%
[1]; artificial intestinal juice pH 6.0, 30 min
  % of dissolved ibuproxam: 27.7%
[1]; artificial intestinal juice pH 6.0, 45 min
  % of dissolved ibuproxam: 32.7%
[1]; artificial intestinal juice pH 6.0, 60 min
  % of dissolved ibuproxam: 33.3%
[2]; pH 1.2, average of 4 tests
  Papp: 235 ×10⁻⁶ cm/s
[2]; pH 3.0, average of 4 tests
  Papp: 238 ×10⁻⁶ cm/s
[2]; pH 6.0, average of 4 tests
  Papp: 233 ×10⁻⁶ cm/s
[2]; pH 1.2, calculated from kd with G = 4.3
  In vitro resorption rate constant (ka): 0.060 min⁻¹
[2]; pH 6.0, calculated from kd with G = 10.0
  In vitro resorption rate constant (ka): 0.138 min⁻¹
[3]
  dissolution rate (kdiss): 0.01 min⁻¹
  effect of pH of the biological fluids on dissolution rate, in words: does not affect the dissolution rate
[4]
  % dissolved within 15 min: 35.8%
  % dissolved within 30 min: 43.4%
  % dissolved within 60 min: 54.5%
